Data from patent publication US20110166112A1, “METHOD FOR STIMULATING PLATELET PRODUCTION” (Eisai, Inc., priority 2009, published 2011).
“And” between values parts separate entries of the source, which are not always exact repeats. Identical values can stand only once.

System: subjects with chronic idiopathic thrombocytopenic purpura (ITP)
Assay: Phase 2 double-blind placebo-controlled dose-ranging 28-day study of E5501 tablets: platelet count response (responder rate)
Assay type: in vivo, human
Conditions: for Responder, Yes / Responder, No: Day 28; for Subjects Who Maintained Responder Status, No / Subjects Who Maintained Responder Status, Yes: completer population; for Subjects Who Maintained Responder Status, Yes: Day 7 response maintained to Day 28; for subjects with increased platelet counts that met the criteria for positive response / response: day 28; for subjects with increased platelet counts that met the criteria for positive response: FAS
Procedure: This was a phase 2, multi-center, double-blind, randomized, placebo-controlled, dose-ranging, parallel group study of E5501 tablets, used in the treatment of subjects with chronic idiopathic thrombocytopenic purpura (ITP) refractory to or relapsed after at least one prior ITP therapy. Subjects who met all entry criteria were randomly assigned in a 3:3:3:3:1 ratio to one of the following five treatment groups dosed daily for 28 days: 1) E5501 2.5 mg; 2) E5501 5 mg; 3) E5501 10 mg; 4) E5501 20 mg; or 5) placebo (PBO). Each E5501 dosing group consisted of 15 subjects while the PBO group consisted of 5 subjects. All study subjects were evaluated weekly (days 7, 14, 21 and 28) for safety and efficacy while receiving study treatment, with a final assessment for safety and effectiveness performed 4 weeks after the last study dose (day 56) unless the subject entered the follow-on study. Platelet counts were also measured on day 3 and day 5.
The primary objective of this study was to assess platelet count response to E5501 on day 28. The response rate was defined as the proportion of subjects who were not on steroids with a screening visit B platelet count <30,000/mm^3 and who achieved a platelet count ≧50,000/mm^3, together with the proportion of subjects receiving steroids with a screening visit B platelet count ≧30,000/mm^3 but <50,000/mm^3 who achieved a platelet count ≧20,000/mm^3 above their screening visit B platelet count. Secondary objectives of the study included the evaluation of other markers of effectiveness, including changes in peripheral blood platelet count, the proportion of subjects who achieved a platelet count ≧50,000/mm^3 and ≧100,000/mm^3, and the proportion of subjects who achieved a doubling of their platelet count at screening visit B and the assessment of the safety and tolerability of E5501.
Primary efficacy endpoint. The primary endpoint in this study was E5501 responder rate on day 28. A responder is defined as a subject with screening visit B platelet count <30,000/mm^3 who achieves a platelet count ≧50,000/mm^3 or a subject receiving steroids with a screening visit B platelet count ≧30,000/mm^3 but <50,000/mm^3 who achieves a platelet count ≧20,000/mm^3 above their screening visit B platelet count.
The secondary endpoints included changes from screening visit B in peripheral blood platelet counts over time; the proportion of subjects who achieved a platelet count of ≧50,000/mm^3 or ≧100,000/mm^3 on day 28 and the proportion of subjects whose platelet count doubled compared to their platelet count at Screening Visit B.
The populations of interest were defined as follows: • The randomized population included all subjects who were randomized into the study. • The safety population included all randomized subjects who receive at least one dose of study drug and have at least one safety assessment. • The pharmacokinetic (PK) population included all subjects who provided blood sample for analysis of E5501. A subject was included in this population if the subject had at least one blood draw for PK assessment. • The full analysis set (FAS) included all subjects who provided adequate data to derive at least one efficacy assessment. […] The day 28 visit window was defined to be from day 25, to last dose day+1, inclusively; • Other major protocol violations that impacted the platelet endpoint evaluation. Results from Planned Analyses
Primary Efficacy Endpoint. The analysis of efficacy was performed both on the FAS population and the PP population at day 28 visit with LOCF and observed case (OC) approaches. The primary analysis population was the FAS. Fisher's exact test was used to examine the difference of response rates among each treatment pair. All p-values are nominal without adjustment for multiplicity.
Secondary Efficacy Endpoint. Analyses for secondary efficacy endpoints were performed by treatment group and by analysis visit using both LOCF and OC methods. […]

[1] = No Previous History of Splenectomy, 20 mg
[2] = No Previous History of Splenectomy, Total E5501
[3] = Number of Lines of Prior Therapy <3, 2.5 mg
[4] = Number of Lines of Prior Therapy <3, 5 mg
[5] = Number of Lines of Prior Therapy <3, 10 mg
[6] = Number of Lines of Prior Therapy <3, 20 mg
[7] = Number of Lines of Prior Therapy <3, Total E5501
[8] = Number of Lines of Prior Therapy ≧3, 2.5 mg
[9] = Number of Lines of Prior Therapy ≧3, 5 mg
[10] = Number of Lines of Prior Therapy ≧3, 10 mg
[11] = Number of Lines of Prior Therapy ≧3, 20 mg
[12] = Number of Lines of Prior Therapy ≧3, Total E5501
[13] = Per Protocol Population, 2.5 mg
[14] = Per Protocol Population, Total E5501
[15] = Previous History of Splenectomy, 2.5 mg
[16] = Previous History of Splenectomy, 5 mg
[17] = Previous History of Splenectomy, 10 mg
[18] = Previous History of Splenectomy, 20 mg
[19] = Previous History of Splenectomy, Total E5501

O=C(Nc1nc(-c2cc(Cl)cs2)c(N2CCN(C3CCCCC3)CC2)s1)c1cnc(N2CCC(C(=O)O)CC2)c(Cl)c1 [E5501, 1-(3-chloro-5-{[4-(4-chlorothiophen-2-yl)-5-(4-cyclohexylpiperazin-1-yl)thiazol-2-yl]carbamoyl}pyridine-2-yl)piperidine-4-carboxylic acid]
Responder, Yes (No Previous History of Splenectomy, 10 mg): 6 (54.5) n (%)
Responder, No [1]: 1 (11.1) n (%)
Responder, Yes [1]: 8 (88.9) n (%)
Responder, No [2]: 20 (48.8) n (%)
Responder, Yes [2]: 21 (51.2) n (%)
Responder, No [3]: 3 (100.0) n (%)
Responder, Yes [3]: 0 n (%)
Responder, No [4]: 4 (44.4) n (%)
Responder, Yes [4]: 5 (55.6) n (%)
Responder, No [5]: 1 (25.0) n (%)
Responder, Yes [5]: 3 (75.0) n (%)
Responder, No [6]: 1 (14.3) n (%)
Responder, Yes [6]: 6 (85.7) n (%)
Responder, No [7]: 9 (39.1) n (%)
Responder, Yes [7]: 14 (60.9) n (%)
Responder, No [8]: 10 (83.3) n (%)
Responder, Yes [8]: 2 (16.7) n (%)
Responder, No [9]: 3 (50.0) n (%)
Responder, Yes [9]: 3 (50.0) n (%)
Responder, No [10]: 6 (60.0) n (%)
Responder, Yes [10]: 4 (40.0) n (%)
Responder, No [11]: 2 (25.0) n (%)
Responder, Yes [11]: 6 (75.0) n (%)
Responder, No [12]: 21 (58.3) n (%)
Responder, Yes [12]: 15 (41.7) n (%)
Responder, No (Other Site Pooled, 2.5 mg): 8 (88.9) n (%)
Responder, Yes (Other Site Pooled, 2.5 mg): 1 (11.1) n (%)
Responder, No (Other Site Pooled, 5 mg): 6 (60.0)2 n (%)
Responder, Yes (Other Site Pooled, 5 mg): 4 (40.0) n (%)
Responder, No (Other Site Pooled, 10 mg): 4 (57.1) n (%)
Responder, Yes (Other Site Pooled, 10 mg): 3 (42.9) n (%)
Responder, No (Other Site Pooled, 20 mg): 1 (16.7) n (%)
Responder, Yes (Other Site Pooled, 20 mg): 5 (83.3) n (%)
Responder, No (Other Site Pooled, Total E5501): 19 (59.4) n (%)
Responder, Yes (Other Site Pooled, Total E5501): 13 (40.6) n (%)
Responder, No [13]: 11 (84.6) n (%)
Responder, Yes [13]: 2 (15.4) n (%)
Responder, No (Per Protocol Population, 5 mg): 7 (53.8) n (%)
Responder, Yes (Per Protocol Population, 5 mg): 6 (46.2) n (%)
Responder, No (Per Protocol Population, 10 mg): 5 (41.7) n (%)
Responder, Yes (Per Protocol Population, 10 mg): 7 (58.3) n (%)
Responder, No (Per Protocol Population, 20 mg): 3 (25.0) n (%)
Responder, Yes (Per Protocol Population, 20 mg): 9 (75.0) n (%)
Responder, No [14]: 26 (52.0) n (%)
Responder, Yes [14]: 24 (48.0) n (%)
Responder, No [15]: 4 (80.0) n (%)
Responder, Yes [15]: 1 (20.0) n (%)
Responder, No [16]: 2 (50.0) n (%)
Responder, Yes [16]: 2 (50.0) n (%)
Responder, No [17]: 2 (66.7) n (%)
Responder, Yes [17]: 1 (33.3) n (%)
Responder, No [18]: 2 (33.3) n (%)
Responder, Yes [18]: 4 (66.7) n (%)
Responder, No [19]: 10 (55.6) n (%)
Responder, Yes [19]: 8 (44.4) n (%)
Responder, No (Site 132, 2.5 mg): 5 (83.3) n (%)
Responder, Yes (Site 132, 2.5 mg): 1 (16.7) n (%)
Responder, No (Site 132, 5 mg): 1 (20.0) n (%)
Responder, Yes (Site 132, 5 mg): 4 (80.0) n (%)
Responder, No (Site 132, 10 mg): 3 (42.9) n (%)
Responder, Yes (Site 132, 10 mg): 4 (57.1) n (%)
Responder, No (Site 132, 20 mg): 2 (22.2) n (%)
Responder, Yes (Site 132, 20 mg): 7 (77.8) n (%)
Responder, No (Site 132, Total E5501): 11 (40.7) n (%)
Responder, Yes (Site 132, Total E5501): 16 (59.3) n (%)
responder rate (by Day 7, 2.5 mg): 6.7%
responder rate (by Day 7, 5 mg): 66.7%
responder rate (by Day 7, 10 mg): 64%
responder rate (by Day 7, 20 mg): 93.3% and 93%
subjects who achieved an increase in platelet count by ≧50,000/mm^3 (by Day 7, 20 mg): Approximately 90%
Subjects Who Maintained Responder Status, No (2.5 mg): 13 (100.0) n (%)
Subjects Who Maintained Responder Status, No (5 mg): 10 (71.4) n (%)
Subjects Who Maintained Responder Status, No (10 mg): 7 (58.3) n (%)
Subjects Who Maintained Responder Status, No (20 mg): 3 (23.1) n (%)
Subjects Who Maintained Responder Status, Yes (2.5 mg): 0 n (%)
Subjects Who Maintained Responder Status, Yes (5 mg): 4 (28.6) n (%)
Subjects Who Maintained Responder Status, Yes (10 mg): 5 (41.7) n (%)
Subjects Who Maintained Responder Status, Yes (20 mg): 10 (76.9) n (%)
Subjects Who Maintained Responder Status, Yes (Total E5501): 19 (36.5) n (%)
Subjects Who Maintained Responder Status, No (Total E5501): 33 (63.5) n (%)
subjects with increased platelet counts that met the criteria for positive response (2.5 mg): 13.3%
subjects with increased platelet counts that met the criteria for positive response (5 mg): 53.3%
subjects with increased platelet counts that met the criteria for positive response (10 mg): 50%
subjects with increased platelet counts that met the criteria for positive response (20 mg): 80%
response (other sites pooled, 5 mg): 40%
response (site 132, 5 mg): 80%
subjects who responded by day 7 (dose of ≧5 mg): 57.6%
overall response rate (highest dose of E5501 tested): 80-93%
reduction of response rates from day 7 to 28 days (lower E5501 dose groups): about 30%
subjects treated with E5501 who responded by day 3 (of 13 subjects): One
subjects treated with E5501 who responded by day 5 (of 19 subjects): 6 subjects
